Reference: patent US20250170252A1, “QUINONE PROTECTED FORMS AND CONJUGATES” (CAMBRIDGE ENTERPRISE LIMITED, priority 2022, published 2025)

Columns and labels:
HeLa = assay: Toxicity with/without β-glucuronidase, HeLa; type: cell-based; details: Homo sapiens, read-out: IC50 β-lapachone, 1
Procedure: (§1) Assays assessing cytotoxicity of β-lapachone and derivatives were performed by CellTiter-Blue assay (Promega) according to the manufacturer's instructions. Briefly, adherent cancer-cell lines were plated at 20,000 cells/well in 96 well plates or suspension cell lines were plated at a concentration of 2×10^5 cells/mL in 24 well plates. Compound stocks in media were made by dilution of DMSO stocks containing the compound of interest to obtain a final in-plate DMSO concentration of only 0.1%. Incubation was performed for 48 h. Following incubation, media was replaced with media containing CellTiter-Blue (Promega) in 1:10 dilution and the plates were incubated for 1.5-4 h. The fluorescence of the plates was recorded (excitation 555 nm, emission 585 nm, MiniMax i3x Reader, Molecular Devices).
(§2) Cell viability was calculated by division of the fluorescence intensity of treated wells by that of the calculated average fluorescence intensity of replicate negative control wells containing cells with 0.1% DMSO only. Values and reported error bars represent the mean and standard error of the mean of three triplicate repeats for each concentration tested. IC50 values were calculated using GraphPad Prism 8 software.
(§3) The potential of compound 37a, glucuronide-PHB-BL, as a prodrug was investigated. As discussed above, at physiological pH the compound has a relatively slow-release rate. Toxicity of Gluc-PHB-BL 37a was tested against a range of cell lines with and without added β-glucuronidase. Addition of the enzyme mimics conditions of the solid tumour environment.

[1] = system: range of cancer cell lines, including leukaemia, breast, colon, and cervical cancer; assay: Toxicity to a range of cancer cell lines (panel); type: cell-based; details: panel of cells
Procedure: as §1, with “MiniMax i3x” left out, “Devices). Cell viability was calculated by division of the fluorescence intensity of treated wells by that of the calculated average fluorescence intensity of replicate negative control wells containing cells with 0.1% DMSO only. Values and reported error bars represent the mean and standard error of the mean of three triplicate repeats for each concentration tested.” for “Devices).”

HEK-293T = assay: Toxicity with/without β-glucuronidase, HEK-293T; type: cell-based; details: Homo sapiens, read-out: IC50 β-lapachone, 1
Procedure: as §1, §2, §3

SkBr-3 = assay: Toxicity with/without β-glucuronidase, SkBr-3; type: cell-based; details: Homo sapiens, SK-BR-3; SkBr-3; read-out: IC50 β-lapachone, 1
Procedure: as §1, §2, §3

range of cell lines = assay: Toxicity of Gluc-PHB-BL against a range of cell lines with and without added β-glucuronidase; type: cell-based; details: control tests
Procedure: as §1, §2, §3

HL-60 = assay: Toxicity with/without β-glucuronidase, HL-60; type: cell-based; details: Homo sapiens, HL-60; read-out: IC50 β-lapachone, 1
Procedure: as §1, §2, §3

[2] = system: HL-60 (leukaemia cell line); assay: Viability assay (CellTiter-Blue), HL-60; type: cell-based; details: Homo sapiens
Procedure: as §1, with “MiniMax i3x” left out, “Devices). Cell viability was calculated by division of the fluorescence intensity of treated wells by that of the calculated average fluorescence intensity of replicate negative control wells containing cells with 0.1% DMSO only. Values and reported error bars represent the mean and standard error of the mean of three triplicate repeats for each concentration tested.” for “Devices).”

[3] = system: HeLa (cervical cancer cell line); assay: Viability assay (CellTiter-Blue), HeLa; type: cell-based; details: Homo sapiens
Procedure: as §1, with “MiniMax i3x” left out, “Devices). Cell viability was calculated by division of the fluorescence intensity of treated wells by that of the calculated average fluorescence intensity of replicate negative control wells containing cells with 0.1% DMSO only. Values and reported error bars represent the mean and standard error of the mean of three triplicate repeats for each concentration tested.” for “Devices).”

ovine blood = assay: Methaemoglobin analysis in sheep's blood; type: cell-based; details: after 1 h of incubation
Procedure: Defibrinated Oxoid™ sheep's blood (ThermoScientific) was diluted to a 5% v/v suspension in PBS pH 7.4. In a 96 well microtiter plate, 150 μL of blood suspension was added to 50 μL of serially diluted compound in PBS containing a 4× stock of each compound of interest. Serial dilution of compounds from DMSO stocks into PBS was performed to achieve an in-plate DMSO concentration of 0.1%. PBS buffer alone was used as a negative control. Three replicates were performed for each compound concentration analysed. The plate was incubated for the specified time at 37° C. The plate was then centrifuged at 3,500 rpm for 5 min. The supernatant was removed and cells lysed by resuspension in 100 μL of a solution of Triton-X-100 (1%) in PBS. Following this 80 μL of lysed cell contents were transferred to a second microtiter plate for UV measurement. To determine methaemoglobin increase, UV absorbance was measured immediately at 630 nm (MiniMax i3x Imager, Molecular Devices). Methaemoglobin increase was determined by (A630−A^0630)/(A^0630)×100, where A630 is the absorbance of the test well at 630 nm, and A^0630 is the absorbance of the negative control at 630 nm. Mean values and standard error of the mean of three independent replicates are plotted.

5-LO = target: T1, 5-LO (Homo sapiens, UniProt P09917); details: previous work, Chem. Sci. 2018; cited from earlier work
T1 sequence (P09917 1-674): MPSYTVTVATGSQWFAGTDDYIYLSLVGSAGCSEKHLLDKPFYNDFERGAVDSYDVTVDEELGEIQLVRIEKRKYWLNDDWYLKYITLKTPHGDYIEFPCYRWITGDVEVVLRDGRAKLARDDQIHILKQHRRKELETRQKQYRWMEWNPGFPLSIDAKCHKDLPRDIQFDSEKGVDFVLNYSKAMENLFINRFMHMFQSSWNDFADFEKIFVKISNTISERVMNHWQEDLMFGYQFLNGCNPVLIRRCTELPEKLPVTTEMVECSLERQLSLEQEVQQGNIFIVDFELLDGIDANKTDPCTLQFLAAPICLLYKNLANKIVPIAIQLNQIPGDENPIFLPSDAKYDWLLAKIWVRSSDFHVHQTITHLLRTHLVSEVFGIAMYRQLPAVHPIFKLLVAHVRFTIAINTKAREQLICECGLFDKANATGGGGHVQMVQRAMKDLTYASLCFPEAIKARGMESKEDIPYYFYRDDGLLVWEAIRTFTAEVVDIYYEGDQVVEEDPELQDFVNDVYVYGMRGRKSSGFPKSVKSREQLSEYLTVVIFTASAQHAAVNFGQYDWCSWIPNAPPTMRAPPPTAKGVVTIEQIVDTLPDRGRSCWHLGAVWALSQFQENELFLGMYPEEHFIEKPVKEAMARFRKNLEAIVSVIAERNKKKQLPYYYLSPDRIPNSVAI

IC50 [2]: 1.4 µM
IC50 [3]: 4.2 µM
lowest dose concentration at which methaemoglobin formation is detectable (ovine blood): 10 µM
SMILES: CC1(C)CCC2=C(O1)c1ccccc1C(=O)C2=O [Compound 1, β-lapachone, reference compound]
IC50 (HeLa): 4.26 µM
IC50 [1]: 1.1 to 4.2 µM
IC50 (HEK-293T): 2.91 µM
IC50 (SkBr-3): 2.75 µM
effect of β-glucuronidase addition on toxicity (range of cell lines): not significantly affected
IC50 (HL-60): 4.33 µM
inhibition of 5-LO (5-LO): strongly inhibits
